{"source": "ChEMBL document CHEMBL1158531", "about": "“DNA strand cleaving properties and hypoxia-selective cytotoxicity of 7-chloro-2-thienylcarbonyl-3-trifluoromethylquinoxaline 1,4-dioxide” (2010)", "key": {"[1]": {"test_system": "Nucleic Acid", "test": "Induction of DNA cleavage in supercoiled pGL2 DNA assessed as open circular DNA form-2 under hypoxic condition with NADPH:cytochrome P450 enzyme system at 25 uM after 16 hrs by agarose gel electrophoresis in presence of radical scavenging agent methanol", "format": "nucleic-acid assay"}, "[2]": {"test_system": "Nucleic Acid", "test": "Induction of DNA cleavage in supercoiled pGL2 DNA assessed as open circular DNA form-2 under hypoxic condition with NADPH:cytochrome P450 enzyme system at 25 uM after 16 hrs by agarose gel electrophoresis in presence of radical scavenging agent mannitol", "format": "nucleic-acid assay"}, "[3]": {"test_system": "Nucleic Acid", "test": "Induction of DNA cleavage in supercoiled pGL2 DNA assessed as open circular DNA form-2 under hypoxic condition with NADPH:cytochrome P450 enzyme system at 5 to 25 uM after 16 hrs by agarose gel electrophoresis", "format": "nucleic-acid assay"}, "[4]": {"test_system": "V79", "test": "Cytotoxicity against chinese hamster V79 cells under aerobic condition at 2.5 uM after 7 days by crystal violet staining", "format": "functional, Cricetulus griseus"}, "[5]": {"test_system": "Nucleic Acid", "test": "Induction of DNA cleavage in supercoiled pGL2 DNA assessed as open circular DNA form-2 under hypoxic condition with NADPH:cytochrome P450 enzyme system at 25 uM after 16 hrs by agarose gel electrophoresis in presence of radical scavenging agent DMSO", "format": "nucleic-acid assay"}, "[6]": {"test_system": "V79", "test": "Hypoxic cytotoxicity ratio, concentration required to kill 99% chinese hamster V79 cells under aerobic condition to hypoxic condition", "format": "functional, Cricetulus griseus"}, "[7]": {"test_system": "V79", "test": "Cytotoxicity against chinese hamster V79 cells under anaerobic condition at 0.21 uM after 7 days by crystal violet staining", "format": "functional, Cricetulus griseus"}, "[8]": {"test_system": "Nucleic Acid", "test": "Induction of DNA cleavage in supercoiled pGL2 DNA assessed as open circular DNA form-2 under hypoxic condition with NADPH:cytochrome P450 enzyme system at 25 uM after 16 hrs by agarose gel electrophoresis in presence of radical scavenging agent t-butanol", "format": "nucleic-acid assay"}, "[9]": {"test_system": "Nucleic Acid", "test": "Induction of DNA cleavage in supercoiled pGL2 DNA assessed as open circular DNA form-2 under hypoxic condition with NADPH:cytochrome P450 enzyme system at 25 uM after 16 hrs by agarose gel electrophoresis in presence of radical scavenging agent ethanol", "format": "nucleic-acid assay"}, "[10]": {"test_system": "Nucleic Acid", "test": "Induction of DNA cleavage in supercoiled pGL2 DNA assessed as open circular DNA form-2 under hypoxic condition with xanthine/xanthine oxidase enzyme system at 20 uM after 16 hrs by agarose gel electrophoresis", "format": "nucleic-acid assay"}, "[11]": {"test_system": "V79", "test": "Cytotoxicity against chinese hamster V79 cells under anaerobic condition at 2.0 uM after 7 days by crystal violet staining", "format": "functional, Cricetulus griseus"}, "[12]": {"test_system": "V79", "test": "Cytotoxicity against chinese hamster V79 cells under aerobic condition at 30 uM after 7 days by crystal violet staining", "format": "functional, Cricetulus griseus"}}, "note": "The source made the active and inactive calls. No cut-off for these calls is given here.", "data": [{"smiles": "O=C(c1cccs1)c1c(C(F)(F)F)[n+]([O-])c2ccc(Cl)cc2[n+]1[O-]", "values": [{"measurement": "Activity", "setting": "[1]", "result": "inactive"}, {"measurement": "Activity", "setting": "[2]", "result": "inactive"}, {"measurement": "Activity", "setting": "[3]", "result": "Active"}, {"measurement": "Activity", "setting": "[4]", "result": 99, "unit": "%"}, {"measurement": "Activity", "setting": "[5]", "result": "inactive"}, {"measurement": "Ratio", "setting": "[6]", "result": 16}, {"measurement": "Activity", "setting": "[7]", "result": 99, "unit": "%"}, {"measurement": "Activity", "setting": "[8]", "result": "inactive"}, {"measurement": "Activity", "setting": "[9]", "result": "inactive"}, {"measurement": "Activity", "setting": "[10]", "result": "Active"}]}, {"smiles": "Nc1n[n+]([O-])c2ccccc2[n+]1[O-]", "note": "[TIRAPAZAMINE]", "values": [{"measurement": "Activity", "setting": "[11]", "result": 99, "unit": "%"}, {"measurement": "Ratio", "setting": "[6]", "result": 75}, {"measurement": "Activity", "setting": "[12]", "result": 99, "unit": "%"}]}, {"smiles": "O=C(c1cccs1)c1nc2cc(Cl)ccc2[n+]([O-])c1C(F)(F)F", "values": [{"measurement": "Activity", "setting": "[3]", "result": "inactive"}]}, {"smiles": "O=C(c1cccs1)c1c(C(F)(F)F)nc2ccc(Cl)cc2[n+]1[O-]", "values": [{"measurement": "Activity", "setting": "[3]", "result": "inactive"}]}]}
